From ChEMBL document CHEMBL1909046, “DrugMatrix in vitro pharmacology data”

Tests used:
Neutrophil elastase = biological target: T1, Neutrophil elastase (Homo sapiens, UniProt P08246); assay type: tissue-based;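 note: inhibition of neutrophil elastase enzyme activity, measured with a p-nitroanilide-linked peptide substrate; in other assays of this panel Not Active means under 50% inhibition at 10 µM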
T1 sequence (P08246 whole entry): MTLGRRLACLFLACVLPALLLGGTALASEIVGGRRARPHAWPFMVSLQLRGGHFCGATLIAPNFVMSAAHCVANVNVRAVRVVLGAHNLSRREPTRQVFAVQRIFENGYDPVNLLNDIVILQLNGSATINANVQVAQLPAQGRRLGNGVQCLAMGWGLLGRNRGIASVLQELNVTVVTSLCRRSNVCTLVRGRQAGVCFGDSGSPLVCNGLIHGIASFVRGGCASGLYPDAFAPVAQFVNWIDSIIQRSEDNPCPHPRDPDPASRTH

Nitric oxide synthase 1 = Nitric oxide synthase 1 (Rattus norvegicus, UniProt P29476); assay type: tissue-based, Cerebellum; note: in other assays of this panel Not Active means under 50% inhibition at 10 µM
[1] = biological target: Tyrosine-protein kinase Fyn (Homo sapiens, UniProt P06241); assay: biochemical; assay type: cell-based, Insect cells;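 note: enzymatic inhibition of Fyn kinase activity measured with Poly(Glu:Tyr) as the phosphorylation substrate; in other assays of this panel Not Active means under 50% inhibition at 10 µM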
Estrogen receptor = biological target: T2, Estrogen receptor (Homo sapiens, UniProt P03372); conditions: sf9; note: in other assays of this panel Not Active means under 50% inhibition at 10 µM
T2 sequence (P03372 whole entry): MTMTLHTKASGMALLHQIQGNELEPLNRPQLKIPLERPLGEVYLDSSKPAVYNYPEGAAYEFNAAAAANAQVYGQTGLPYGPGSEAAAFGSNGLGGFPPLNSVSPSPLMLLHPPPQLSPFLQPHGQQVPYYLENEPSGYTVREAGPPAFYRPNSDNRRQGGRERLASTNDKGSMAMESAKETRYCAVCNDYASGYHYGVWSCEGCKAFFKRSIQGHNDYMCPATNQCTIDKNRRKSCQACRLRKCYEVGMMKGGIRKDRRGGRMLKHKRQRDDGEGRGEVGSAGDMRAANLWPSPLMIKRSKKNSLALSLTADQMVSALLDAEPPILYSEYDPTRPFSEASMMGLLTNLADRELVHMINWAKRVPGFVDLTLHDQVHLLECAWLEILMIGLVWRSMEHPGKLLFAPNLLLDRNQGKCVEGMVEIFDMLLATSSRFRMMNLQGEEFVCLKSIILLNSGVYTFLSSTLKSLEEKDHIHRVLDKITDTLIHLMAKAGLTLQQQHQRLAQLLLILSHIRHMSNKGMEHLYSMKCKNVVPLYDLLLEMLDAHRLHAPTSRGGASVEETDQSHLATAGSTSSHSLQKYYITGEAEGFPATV

Melanocortin receptor 4 = Melanocortin receptor 4 (Homo sapiens, UniProt P32245); assay type: cell membranes, Membrane; conditions: hek293; note: in other assays of this panel Not Active means under 50% inhibition at 10 µM
Endothelin-1 receptor = biological target: T3, Endothelin-1 receptor (Homo sapiens, UniProt P25101); assay type: cell membranes, CHO-K1, Membrane; conditions: cho-k1; note: in other assays of this panel Not Active means under 50% inhibition at 10 µM
T3 sequence (P25101 whole entry): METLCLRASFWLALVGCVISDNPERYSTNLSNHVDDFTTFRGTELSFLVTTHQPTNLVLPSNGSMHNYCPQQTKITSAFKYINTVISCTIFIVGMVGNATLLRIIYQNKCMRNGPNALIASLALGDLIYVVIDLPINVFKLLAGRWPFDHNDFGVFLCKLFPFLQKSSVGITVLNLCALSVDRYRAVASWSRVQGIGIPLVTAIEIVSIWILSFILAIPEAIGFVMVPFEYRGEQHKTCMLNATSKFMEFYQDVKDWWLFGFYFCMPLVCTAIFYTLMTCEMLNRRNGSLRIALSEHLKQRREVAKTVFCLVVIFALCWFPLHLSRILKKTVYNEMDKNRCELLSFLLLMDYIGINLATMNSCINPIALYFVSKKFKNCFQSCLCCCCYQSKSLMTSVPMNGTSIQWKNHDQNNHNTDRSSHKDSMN

Cathepsin G = biological target: T4, Cathepsin G (Homo sapiens, UniProt P08311); assay type: tissue-based; conditions: neutrophil
T4 sequence (P08311 whole entry): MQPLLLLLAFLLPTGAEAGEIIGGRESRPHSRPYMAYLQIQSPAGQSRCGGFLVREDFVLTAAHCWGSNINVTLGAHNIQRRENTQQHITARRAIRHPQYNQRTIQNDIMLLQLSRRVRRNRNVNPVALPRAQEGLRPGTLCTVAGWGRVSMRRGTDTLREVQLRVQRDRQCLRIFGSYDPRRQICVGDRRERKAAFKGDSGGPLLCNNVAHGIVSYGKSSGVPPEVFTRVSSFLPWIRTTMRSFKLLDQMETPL

[2] = DRUGMATRIX: Glutamate, Kainate radioligand binding (ligand: [3H] Kainic acid); assay type: cell membranes, Rattus norvegicus, Wistar, Brain, Membrane; conditions: Not Active = under 50% inhibition at 10 µM
Leukotriene C4 synthase = biological target: T5, Leukotriene C4 synthase (Cavia porcellus, UniProt A6XA80); assay type: tissue-based, Lung
T5 sequence (A6XA80 whole entry): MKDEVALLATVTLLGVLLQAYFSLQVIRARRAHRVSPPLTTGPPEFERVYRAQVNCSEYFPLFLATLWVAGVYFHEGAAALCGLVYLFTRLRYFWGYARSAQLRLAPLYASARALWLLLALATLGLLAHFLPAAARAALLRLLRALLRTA

Chain of Tyrosine-protein kinase Fyn (P06241 whole entry): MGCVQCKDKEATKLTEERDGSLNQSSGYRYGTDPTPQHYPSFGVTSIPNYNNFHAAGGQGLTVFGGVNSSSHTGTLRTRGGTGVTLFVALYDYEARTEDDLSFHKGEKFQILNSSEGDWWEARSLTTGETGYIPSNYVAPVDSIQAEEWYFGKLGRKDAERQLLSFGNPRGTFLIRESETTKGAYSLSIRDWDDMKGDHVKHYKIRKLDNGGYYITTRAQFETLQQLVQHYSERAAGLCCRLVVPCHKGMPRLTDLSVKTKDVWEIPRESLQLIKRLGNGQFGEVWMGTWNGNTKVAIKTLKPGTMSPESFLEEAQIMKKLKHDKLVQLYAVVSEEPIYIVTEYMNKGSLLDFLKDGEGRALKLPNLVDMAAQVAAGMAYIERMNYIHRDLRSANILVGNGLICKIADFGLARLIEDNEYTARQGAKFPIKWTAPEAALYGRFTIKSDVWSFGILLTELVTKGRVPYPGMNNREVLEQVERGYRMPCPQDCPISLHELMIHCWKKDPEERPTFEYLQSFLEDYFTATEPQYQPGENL
Chain of Nitric oxide synthase 1 (P29476 whole entry): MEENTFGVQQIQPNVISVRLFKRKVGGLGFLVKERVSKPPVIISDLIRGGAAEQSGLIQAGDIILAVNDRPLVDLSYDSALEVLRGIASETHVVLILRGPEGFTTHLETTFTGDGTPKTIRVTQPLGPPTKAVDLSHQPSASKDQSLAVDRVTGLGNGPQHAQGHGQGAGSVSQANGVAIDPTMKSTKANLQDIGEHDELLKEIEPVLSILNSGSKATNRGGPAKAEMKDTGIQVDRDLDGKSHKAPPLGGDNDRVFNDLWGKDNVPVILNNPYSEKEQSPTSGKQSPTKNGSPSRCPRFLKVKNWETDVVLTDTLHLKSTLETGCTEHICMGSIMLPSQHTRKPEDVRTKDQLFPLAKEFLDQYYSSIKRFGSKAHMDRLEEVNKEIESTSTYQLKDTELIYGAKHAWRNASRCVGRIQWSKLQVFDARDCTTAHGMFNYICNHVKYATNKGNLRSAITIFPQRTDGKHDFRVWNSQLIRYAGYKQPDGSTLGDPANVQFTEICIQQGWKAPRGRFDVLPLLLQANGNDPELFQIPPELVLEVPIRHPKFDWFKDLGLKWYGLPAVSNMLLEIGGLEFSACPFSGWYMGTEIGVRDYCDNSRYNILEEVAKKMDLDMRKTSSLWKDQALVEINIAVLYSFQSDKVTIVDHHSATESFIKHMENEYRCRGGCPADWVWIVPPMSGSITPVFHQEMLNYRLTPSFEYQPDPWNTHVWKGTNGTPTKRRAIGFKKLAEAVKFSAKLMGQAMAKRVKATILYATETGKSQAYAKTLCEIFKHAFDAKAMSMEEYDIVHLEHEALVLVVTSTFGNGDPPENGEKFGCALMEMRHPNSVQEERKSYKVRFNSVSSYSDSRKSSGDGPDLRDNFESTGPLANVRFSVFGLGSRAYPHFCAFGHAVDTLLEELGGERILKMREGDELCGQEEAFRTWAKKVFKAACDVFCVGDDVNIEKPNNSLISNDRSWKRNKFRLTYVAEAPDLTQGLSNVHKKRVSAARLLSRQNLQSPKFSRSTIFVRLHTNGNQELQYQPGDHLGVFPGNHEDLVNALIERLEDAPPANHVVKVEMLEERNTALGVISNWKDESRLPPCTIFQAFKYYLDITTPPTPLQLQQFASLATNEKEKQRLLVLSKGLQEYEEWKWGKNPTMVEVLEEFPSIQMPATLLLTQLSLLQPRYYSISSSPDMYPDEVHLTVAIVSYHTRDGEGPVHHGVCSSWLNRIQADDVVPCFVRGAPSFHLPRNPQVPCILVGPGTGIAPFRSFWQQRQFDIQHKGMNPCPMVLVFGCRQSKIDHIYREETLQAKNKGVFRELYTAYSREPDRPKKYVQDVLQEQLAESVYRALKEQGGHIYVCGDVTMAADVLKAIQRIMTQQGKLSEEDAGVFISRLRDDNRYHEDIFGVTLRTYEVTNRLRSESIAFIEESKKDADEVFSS
Chain of Melanocortin receptor 4 (P32245 whole entry): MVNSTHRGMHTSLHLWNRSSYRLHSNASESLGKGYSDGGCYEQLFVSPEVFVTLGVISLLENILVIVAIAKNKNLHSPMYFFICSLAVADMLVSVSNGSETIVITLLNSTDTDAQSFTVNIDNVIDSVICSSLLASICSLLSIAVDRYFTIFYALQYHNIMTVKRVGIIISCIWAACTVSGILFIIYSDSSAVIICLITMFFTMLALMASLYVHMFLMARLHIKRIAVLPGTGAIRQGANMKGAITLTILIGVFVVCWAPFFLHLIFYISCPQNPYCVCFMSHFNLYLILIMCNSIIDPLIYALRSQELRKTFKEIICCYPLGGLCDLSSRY

C[C@H]([C@](O)(Cn1cncn1)c1ccc(F)cc1F)S(C)(=O)=O [GENACONAZOLE]
Not Active: IC50 (Neutrophil elastase) | IC50 (Nitric oxide synthase 1) | IC50 ([1]; insect cells) | IC50 (Estrogen receptor) | IC50 (Melanocortin receptor 4) | IC50 (Endothelin-1 receptor) | IC50 (Cathepsin G) | IC50 [2] | Ki [2] | IC50 (Leukotriene C4 synthase)

CC[C@H](C)C(=O)O[C@H]1C[C@H](O)C=C2C=C[C@H](C)[C@H](CC[C@@H](O)C[C@@H](O)CC(=O)O)[C@H]21 [PRAVASTATIN]
Not Active: IC50 (Neutrophil elastase) | IC50 (Nitric oxide synthase 1) | IC50 ([1]; insect cells) | IC50 (Estrogen receptor) | IC50 (Melanocortin receptor 4) | IC50 (Endothelin-1 receptor) | IC50 (Cathepsin G) | IC50 [2] | Ki [2] | IC50 (Leukotriene C4 synthase)

OCCN1CCN(CCCN2c3ccccc3Sc3ccc(Cl)cc32)CC1 [PERPHENAZINE]
Not Active: IC50 (Neutrophil elastase) | IC50 (Nitric oxide synthase 1) | IC50 ([1]; insect cells) | IC50 (Estrogen receptor) | IC50 (Melanocortin receptor 4) | IC50 (Endothelin-1 receptor) | IC50 (Cathepsin G) | IC50 [2] | Ki [2] | IC50 (Leukotriene C4 synthase)

CC(C)(C)c1ccc(S(=O)(=O)/C=C/C#N)cc1 [BAY-11-7085]
Not Active: IC50 (Neutrophil elastase) | IC50 (Nitric oxide synthase 1) | IC50 ([1]; insect cells) | IC50 (Estrogen receptor) | IC50 (Melanocortin receptor 4) | IC50 (Endothelin-1 receptor) | IC50 (Cathepsin G) | IC50 [2] | Ki [2] | IC50 (Leukotriene C4 synthase)

CCC(=O)O[C@H]1[C@H](O[C@@H]2[C@@H](C)[C@H](O[C@H]3C[C@@](C)(OC)[C@@H](O)[C@H](C)O3)[C@@H](C)C(=O)O[C@H](CC)[C@@](C)(O)[C@H](O)[C@@H](C)C(=O)[C@H](C)C[C@@]2(C)O)O[C@H](C)C[C@@H]1N(C)C [ERYTHROMYCIN PROPIONATE]
Not Active: IC50 (Neutrophil elastase) | IC50 (Nitric oxide synthase 1) | IC50 ([1]; insect cells) | IC50 (Estrogen receptor) | IC50 (Melanocortin receptor 4) | IC50 (Endothelin-1 receptor) | IC50 (Cathepsin G) | IC50 [2] | Ki [2] | IC50 (Leukotriene C4 synthase)

CN1C[C@H](C(=O)N[C@]2(C)O[C@@]3(O)[C@@H]4CCCN4C(=O)[C@H](Cc4ccccc4)N3C2=O)C[C@@H]2c3cccc4[nH]cc(c34)C[C@H]21 [DIHYDROERGOTAMINE]
Not Active: IC50 (Neutrophil elastase) | IC50 (Nitric oxide synthase 1) | IC50 ([1]; insect cells) | IC50 (Estrogen receptor) | IC50 (Melanocortin receptor 4) | IC50 (Endothelin-1 receptor) | IC50 (Cathepsin G) | IC50 [2] | Ki [2] | IC50 (Leukotriene C4 synthase)

CC(CCc1ccc(O)cc1)NCCc1ccc(O)c(O)c1 (stereo not drawn) [DOBUTAMINE]
3.98 µM: IC50 ([1]; read-out: IC50)
Not Active: IC50 (Neutrophil elastase) | IC50 (Nitric oxide synthase 1) | IC50 (Estrogen receptor) | IC50 (Melanocortin receptor 4) | IC50 (Endothelin-1 receptor) | IC50 (Cathepsin G) | IC50 [2] | Ki [2] | IC50 (Leukotriene C4 synthase)

POLYVINYL ALCOHOL
Not Active: IC50 (Neutrophil elastase) | Ki (Neutrophil elastase) | IC50 (Nitric oxide synthase 1) | Ki (Nitric oxide synthase 1) | IC50 ([1]; insect cells) | Ki ([1]; insect cells) | IC50 (Estrogen receptor) | Ki (Estrogen receptor) | IC50 (Melanocortin receptor 4) | Ki (Melanocortin receptor 4) | IC50 (Endothelin-1 receptor) | Ki (Endothelin-1 receptor) | IC50 (Cathepsin G) | Ki (Cathepsin G) | IC50 [2] | Ki [2] | IC50 (Leukotriene C4 synthase) | Ki (Leukotriene C4 synthase)

CS(=O)(=O)OCCCCOS(C)(=O)=O [BUSULFAN]
Not Active: IC50 (Neutrophil elastase) | IC50 (Nitric oxide synthase 1) | IC50 ([1]; insect cells) | IC50 (Estrogen receptor) | IC50 (Melanocortin receptor 4) | IC50 (Endothelin-1 receptor) | IC50 (Cathepsin G) | IC50 [2] | Ki [2] | IC50 (Leukotriene C4 synthase)
